Values after ≈ are worked out from the molar mass of the structure shown. Where a SMILES comes first, the peptide text is derived from it.
Tests used:
[1] = system: E. faecalis PCM 2673 biofilm; assay type: cell-based, Enterococcus faecalis; conditions: 24 h
Method: (§1) The minimum inhibitory concentrations (MICs) of test compounds were assessed by broth microdilution method on 96-well plates, according to the guidelines of Clinical and Laboratory Standards Institute (CLSI). For this purpose, reference strains of bacteria: S. aureus ATCC 25923, E. faecalis PCM 2673, E. coli ATCC 25922, and P. aeruginosa ATCC 9027; and fungus: C. albicans ATCC 10231 were used (The Polish Collection of Microorganism, Polish Academy of Sciences, Wrocław, Poland). Bacteria at initial inoculums of 0.5 × 10^5 CFU/mL in Mueller Hinton Broth (MHB), and fungi at initial inoculums of 2 × 10^3 CFU/mL in RPMI-1640, were exposed to the compounds over the concentration range of 1–512 μg/mL. The polystyrene plates were incubated at 37 °C for 18 h with bacteria and for 24 h with C. albicans. The MIC was taken as the lowest concentration at which a noticeable growth of microorganisms was inhibited. Minimum biofilm eradication concentrations (MBECs) were determined using a previously described protocol. For this purpose, 96-well polystyrene flat-bottom plates and a resazurin (7-hydroxy-3H-phenoxazin-3-one 10-oxide) were used. In this assay, a specific feature of resazurin is utilized, which upon the contact with living cells is metabolized and reduced from the basic blue form to pink resorufin. Briefly, 24-h cultures of microorganisms were diluted 1,000-fold and 100 μL of that suspension was added into the test plates. After 24 h of incubation at 37 °C, the wells of the plates were rinsed three times with phosphate buffer saline (PBS) to remove non-adherent cells. Subsequently, 100 μL of test compounds in concentration range (diluted in appropriate media) were added to each well. After 24 h of incubation at 37 °C, 20 μL of the resazurin (4 mg/mL) was added. The MBEC was read after 1 h. Additionally, anti-adhesive properties of the compounds were also analyzed. The assay was conducted on 96-well polystyrene flat-bottom plates. The preparation of inoculums was followed by a 500-fold dilution of 24-h cultures of microorganisms. Briefly, to evaluate the effect of the peptides in preventing biofilm formation, 50 μL of compounds in concentration range, diluted in appropriate medium, were prepared. Subsequently, the 50 μL of the bacterial/fungal inoculums were added to reach the same microbial density as that in MBEC assay. After 24 h of incubation at 37 °C, the wells were rinsed three times with PBS and the fresh media with resazurin (0.6 mg/mL) were added. Then, after 1 h of incubation, the minimum biofilm inhibitory concentrations (MBIC) were read. MBECs as well as MBICs were determined as the lowest concentration at which the reduction of resazurin was lower or equal (10% ± 0.5%) as compared to positive (100%) and negative (0%) controls. All experiments were performed in triplicate.

[2] = system: E. faecalis PCM 2673 biofilm formation; assay type: cell-based, Enterococcus faecalis; conditions: 24 h
Method: as §1

E. faecalis PCM 2673 = assay type: cell-based, Enterococcus faecalis; conditions: PCM 2673, 18 h
Method: as §1

[3] = system: S. aureus ATCC 25923 biofilm; assay type: cell-based, Staphylococcus aureus; conditions: ATCC 25923, 24 h
Method: as §1

S. aureus ATCC 25923 = assay type: cell-based, Staphylococcus aureus; conditions: ATCC 25923, 18 h
Method: as §1

[4] = system: S. aureus ATCC 25923 biofilm formation; assay type: cell-based, Staphylococcus aureus; conditions: ATCC 25923, 24 h
Method: as §1

[5] = system: E. coli ATCC 25922 biofilm formation; assay type: cell-based, Escherichia coli; conditions: ATCC 25922, 24 h
Method: as §1

[6] = system: E. coli ATCC 25922 biofilm; assay type: cell-based, Escherichia coli; conditions: ATCC 25922, 24 h
Method: as §1

E. coli ATCC 25922 = assay type: cell-based, Escherichia coli; conditions: ATCC 25922, 18 h
Method: as §1

[7] = system: human red blood cells (RBCs); experiment: Hemolysis assay; assay type: cell-based; conditions: red cells of human, 1 h
Method: The hemolytic activity of the peptides was determined using fresh human red blood cells (RBCs) collected from a healthy human donor according to the procedure described in the literature. Fresh RBCs with EDTA as anticoagulant were rinsed three times with a PBS by centrifugation at 800×g for 10 min and resuspension in PBS. Serial dilution of the peptides in PBS (1–256 μg/mL) on 96-well polystyrene plates was prepared and the stock solution of RBCs was added up to a final volume of 100 μL with a 4% concentration of erythrocytes (v/v). The control wells for 0 and 100% hemolysis contained of RBCs suspended in PBS and 1% of Triton-X 100, respectively. Subsequently, the plates were incubated for 1 h at 37 °C and then centrifuged at 800×g for 10 min at 4 °C (Sorvall ST 16R Centrifuge, Thermo Scientific). After centrifugation, the supernatant was carefully […] to new microtiter plates and the release of hemoglobin was measured at 540 nm (Multiskan™ GO Microplate Spectrophotometer, Thermo Scientific). All experiments were conducted in triplicate.

in vitro = in vitro ADME; conditions: bovine, serum
Method: To assess serum stability, the peptides (0.5 mg) were dissolved in 4 mL of 25% (v/v) fetal bovine serum (FBS) in PBS and incubated at 37 °C. The aliquots of 100 μL of the test samples were transferred to 96-well polystyrene plates in triplicate for each time point. Samples were quenched at zero time (t0) and after 6 h of incubation at 37 °C by addition of 100 μL of ice-cold acetonitrile and stored at 4 °C for 10 min. Afterwards, the samples were centrifuged at 13,000×g for 20 min at 4 °C and diluted 1:1 with HPLC-grade water. All samples were analyzed using the Waters Alliance e2695 system with Waters Acquity QDa Detector (software–Empower®3). Analyses were conducted on an Agilent Zorbax SB-C18 RP-18 column (4.6 × 50 mm, 1.8-μm particle size, 80-Å pore size) using a linear 30–60% acetonitrile (B) gradient in deionized water (A) over 6 min at 25.0 ± 0.1 °C, at a flow rate of 0.5 mL/min and MS working in selected ion recording (SIR) mode (A—0.1% aqueous formic acid (FA) and B—0.1% FA in acetonitrile). The percentage of peptide remaining intact was calculated from peak areas of samples at t0 and after 6 h of incubation in serum (the % of remaining peptide = peak area after 6 h/peak area at t0). The mass-to-charge ratios selected for SIR mode were based on values obtained from full spectrum analysis of each peptide and are presented in Table 1.

[8] = system: C. albicans ATCC 10231 biofilm; assay type: cell-based, Candida albicans; conditions: ATCC 10231, 24 h
Method: as §1

C. albicans ATCC 10231 = assay type: cell-based, Candida albicans; conditions: ATCC 10231, 24 h
Method: as §1

[9] = system: C. albicans ATCC 10231 biofilm formation; assay type: cell-based, Candida albicans; conditions: ATCC 10231, 24 h
Method: as §1

P. aeruginosa ATCC 9027 = assay type: cell-based, Pseudomonas aeruginosa; conditions: ATCC 9027, 18 h
Method: as §1

[10] = system: P. aeruginosa ATCC 9027 biofilm formation; assay type: cell-based, Pseudomonas aeruginosa; conditions: ATCC 9027, 24 h
Method: as §1

[11] = system: P. aeruginosa ATCC 9027 biofilm; assay type: cell-based, Pseudomonas aeruginosa; conditions: ATCC 9027, 24 h
Method: as §1

Compound	MBEC, E. faecalis PCM 2673 [1] [µg/mL]	MBIC, E. faecalis PCM 2673 [2] [µg/mL]	MIC, E. faecalis PCM 2673 (E. faecalis PCM 2673) [µg/mL]	MBEC, S. aureus ATCC 25923 [3] [µg/mL]	MIC, S. aureus ATCC 25923 (S. aureus ATCC 25923) [µg/mL]	MBIC, S. aureus ATCC 25923 [4] [µg/mL]	MBIC, E. coli ATCC 25922 [5] [µg/mL]	MBEC, E. coli ATCC 25922 [6] [µg/mL]	MIC, E. coli ATCC 25922 (E. coli ATCC 25922) [µg/mL]	Percentage of hemolysis at 1 μg/mL [7] [%]	Percentage of hemolysis at 2 μg/mL [7] [%]	Percentage of hemolysis at 4 μg/mL [7] [%]	Percentage of hemolysis at 8 μg/mL [7] [%]	Percentage of hemolysis at 16 μg/mL [7] [%]	Percentage of hemolysis at 32 μg/mL [7] [%]	Percentage of hemolysis at 64 μg/mL [7] [%]	Percentage of hemolysis at 128 μg/mL [7] [%]	Percentage of hemolysis at 256 μg/mL [7] [%]	remaining at 6 h, 0.125 mg/mL (in vitro) [%]	MBEC, C. albicans ATCC 10231 [8] [µg/mL]	further results
CC[C@H](C)[C@H](NC(=O)[C@H](CCCCN)NC(=O)[C@H](CCCCN)NC(=O)[C@@H](NC(=O)[C@@H](NC(=O)[C@H](CC(=O)O)NC(=O)[C@H](Cc1ccccc1)NC(=O)[C@H](CC(C)C)NC(=O)[C@H](C)N)[C@@H](C)CC)[C@@H](C)CC)C(=O)N[C@@H](C)C(=O)N[C@@H](CCC(=O)O)C(=O)N[C@@H](CO)C(=O)N[C@@H](Cc1ccccc1)C(N)=O [Peptide G1A] (H-ALFDIIKKIAESF-NH2)	> 512	256	128 (≈ 85.7 µM)	512	512 (≈ 343 µM)	512	128	256	128 (≈ 85.7 µM)	0.0	0.0	0.0	0.0	0.0	0.0	0.0	0.3	4.2	16	> 512	MIC, C. albicans ATCC 10231 (C. albicans ATCC 10231): 128 µg/mL (≈ 85.7 µM); MBIC, C. albicans ATCC 10231 [9]: 4 µg/mL; MIC, P. aeruginosa ATCC 9027 (P. aeruginosa ATCC 9027): 512 µg/mL (≈ 343 µM); MBIC, P. aeruginosa ATCC 9027 [10]: 256 µg/mL; MBEC, P. aeruginosa ATCC 9027 [11]: 512 µg/mL
CC[C@H](C)[C@H](NC(=O)[C@H](C)NC(=O)[C@H](CC(=O)O)NC(=O)[C@H](Cc1ccccc1)NC(=O)[C@H](CC(C)C)NC(=O)CN)C(=O)N[C@@H](CCCCN)C(=O)N[C@@H](CCCCN)C(=O)N[C@H](C(=O)N[C@@H](C)C(=O)N[C@@H](CCC(=O)O)C(=O)N[C@@H](CO)C(=O)N[C@@H](Cc1ccccc1)C(N)=O)[C@@H](C)CC [Peptide I5A] (H-GLFDAIKKIAESF-NH2)	> 512	512	128 (≈ 89 µM)	> 512	> 512	> 512	512	512	256 (≈ 178 µM)	0.2	0.3	0.2	0.0	0.0	0.0	0.1	0.0	1.1	71	512	MIC, C. albicans ATCC 10231 (C. albicans ATCC 10231): 256 µg/mL (≈ 178 µM); MBIC, C. albicans ATCC 10231 [9]: 4 µg/mL; MIC, P. aeruginosa ATCC 9027 (P. aeruginosa ATCC 9027): 512 µg/mL (≈ 356 µM); MBIC, P. aeruginosa ATCC 9027 [10]: > 512 µg/mL; MBEC, P. aeruginosa ATCC 9027 [11]: > 512 µg/mL

Reference: paper PMC6695355, “Alanine Scanning Studies of the Antimicrobial Peptide Aurein 1.2” (Probiotics and Antimicrobial Proteins, 2018)
